Activity calls are given as the source filed them. No cut-off for these calls is given here.
Legend:
[1] = test system: Human immunodeficiency virus 1; experiment: Antiviral activity against HIV 1 NL4-3 infected in human MT4 cells assessed as reduction in viral replication and measured on day 3 post infection by Nano-glo luciferase reporter gene assay; type: functional, organism-based
[2] = test system: RAW264.7; experiment: Cytotoxicity against mouse RAW264.7 cells assessed as reduction in cell viability after 24 hrs by alamarBlue assay; type: cell-based; details: RAW264.7, 24 h
[3] = test system: HepG2; experiment: Antiproliferative activity against human HepG2 cells assessed as reduction in cell viability after 48 hrs by alamarBlue assay; type: functional, cell-based
[4] = test system: WiDr; experiment: Antiproliferative activity against human WiDr cells assessed as reduction in cell viability after 48 hrs by alamarBlue assay; type: functional, cell-based
[5] = test system: RAW264.7; experiment: Antiinflammatory activity in mouse RAW264.7 cells assessed as inhibition of LPS-induced NO production incubated for 12 hrs by Griess reagent based assay; type: functional
[6] = Cytotoxicity against mouse RAW264.7 cells assessed as cell viability at 15 ug/ml after 24 hrs by alamarBlue assay relative to control; type: cell-based; details: read-out: Activity
[7] = test system: HEp-2; experiment: Antiproliferative activity against human Hep2 cells assessed as reduction in cell viability after 48 hrs by alamarBlue assay; type: functional, cell-based
[8] = test system: MCF7; experiment: Antiproliferative activity against human MCF7 cells assessed as reduction in cell viability after 48 hrs by alamarBlue assay; type: functional, cell-based

SMILES | Activity [1] | IC50 [2] [µM] | Activity [3] | Activity [4] | inhibition (INH) [5] [%] | viability at 24 h, 15 ug/ml [6] [%] | Activity [7] | Activity [8]
COC(C)(C)/C=C/C[C@@H](C)[C@H]1CC[C@@]2(C)[C@@H]3[C@@H](O)C=C4[C@@H](CC[C@H](OC(=O)CC(=O)O)C4(C)C)[C@]3(C=O)CC[C@]12C | inactive | – | – | – | – | – | – | –
CO[C@H]1C=C2[C@@H](CC[C@H](OC(=O)CC(=O)O)C2(C)C)[C@]2(C=O)CC[C@]3(C)[C@@H]([C@H](C)C/C=C/C(C)(C)O)CC[C@@]3(C)[C@H]12 | – | 24.4 | inactive | inactive | 51.2 | 125 | inactive | inactive
CO[C@H]1C=C2[C@@H](CC[C@H](O)C2(C)C)[C@]2(C=O)CC[C@]3(C)[C@@H]([C@H](C)C/C=C/C(C)(C)OC)CC[C@@]3(C)[C@H]12 | – | 35.6 | inactive | inactive | 35 | 90.5 | inactive | inactive
COC(=O)CC(=O)O[C@H]1CC[C@@H]2C(=C[C@H](O)[C@@H]3[C@@]2(C=O)CC[C@]2(C)[C@@H]([C@H](C)C/C=C/C(C)(C)OC)CC[C@@]32C)C1(C)C | inactive | 15.6 | inactive | inactive | 64.3 | 69 | inactive | inactive
CO[C@@H]1O[C@]23C=C[C@@H]4[C@@]1(CC[C@]1(C)[C@@H]([C@H](C)C/C=C/C(C)(C)O)CC[C@@]41C)[C@@H]2CC[C@H](OC(=O)CC(=O)O)C3(C)C | – | 29.1 | inactive | inactive | 42.6 | 113 | inactive | inactive
COC(=O)CC(=O)O[C@H]1CC[C@@H]2C(=C[C@H](O)[C@@H]3[C@@]2(C=O)CC[C@]2(C)[C@@H]([C@H](C)C/C=C/C(C)(C)O)CC[C@@]32C)C1(C)C | inactive | 20.3 | inactive | inactive | 65.1 | 67.6 | inactive | inactive
CO[C@H]1O[C@]23C=C[C@@H]4[C@@]1(CC[C@]1(C)[C@@H]([C@H](C)C/C=C/C(C)(C)O)CC[C@@]41C)[C@@H]2CC[C@H](OC(=O)CC(=O)O)C3(C)C | – | 11.3 | inactive | inactive | 66.1 | 59.6 | inactive | inactive
CO[C@H]1C=C2[C@@H](CC[C@H](OC(=O)CC(=O)O)C2(C)C)[C@]2(C=O)CC[C@]3(C)[C@@H]([C@H](C)C/C=C/C(C)(C)OC)CC[C@@]3(C)[C@H]12 | inactive | 22.1 | inactive | inactive | 56.5 | 72.4 | inactive | inactive
CCOC(C)(C)/C=C/C[C@@H](C)[C@H]1CC[C@@]2(C)[C@@H]3[C@@H](O)C=C4[C@@H](CC[C@H](OC(=O)CC(=O)O)C4(C)C)[C@]3(C=O)CC[C@]12C | – | 24 | inactive | inactive | 50.4 | 89.7 | inactive | inactive
C[C@H](C/C=C/C(C)(C)O)[C@H]1CC[C@@]2(C)[C@@H]3[C@@H](O)C=C4[C@@H](CC[C@H](OC(=O)CC(=O)O)C4(C)C)[C@]3(C=O)CC[C@]12C | – | 16 | inactive | inactive | 77 | 53.8 | inactive | inactive
CO[C@@H](C=C(C)C)C[C@@H](C)[C@H]1CC[C@@]2(C)[C@@H]3[C@@H](O)C=C4[C@@H](CC[C@H](OC(=O)CC(=O)O)C4(C)C)[C@]3(C=O)CC[C@]12C | inactive | 16.1 | inactive | inactive | 68.8 | 61.9 | inactive | inactive
O=c1c(O)c(-c2ccc(O)c(O)c2)oc2cc(O)cc(O)c12 [QUERCETIN] | – | 4.2 | – | – | 88.9 | 142 | – | –
C/C=C/C(=O)O[C@H]1CC[C@@H]2C(=C[C@H](O)[C@@H]3[C@@]2(C=O)CC[C@]2(C)[C@@H]([C@H](C)C/C=C/C(C)(C)O)CC[C@@]32C)C1(C)C | – | 19.1 | inactive | inactive | 73.3 | 94.7 | inactive | inactive

From ChEMBL document CHEMBL4627387, “Cucurbitane-Type Triterpenoids from the Vines of Momordica charantia and Their Anti-inflammatory Activities” (J Nat Prod, 2020)
